Measurements published in patent publication US20030013658A1, “Small peptides and methods for treatment of asthma and inflammation” (Hisatek, LLC, priority 1997, published 2003).
Entries after “also recorded” stand apart in the source; their conditions may differ. Where no end group is shown, it is not given here. The star is where a group is joined. For = O=C*

System: OVA-sensitized/challenged mice
Test: OVA allergen-induced airway inflammation mouse model, 28-day protocol, HK-X i.n. before each challenge
Assay type: in vivo
Description: The above-described murine model reproduces key features of human asthma. Late-phase allergen-specific pulmonary disease was induced in normal BALB/c mice using ovalbumin (OVA) as allergen. One protocol includes immunization of mice with i.p. OVA on […] and 14, and intranasal (i.n.) administration of OVA on days 14, 25, 26, and 27.
In a mouse model of allergen-induced airway inflammation, the role of mast cell in airway eosinophil infiltration, mucus release, and hyper-responsiveness to methacholine was examined.
Materials were used as described above. Mice received an i.p. injection of 0.2 ml (100 ug) of OVA complexed with aluminum potassium sulfate (alum) on day 0 and 14. On days 14, 25, 26, and 27, mice were anesthetized with 0.2 ml i.p. of ketamine (0.44 mg/ml)/xylazine (6.3 mg/ml) in normal saline before receiving an intranasal (i.n.) dose of 100 ug OVA in 0.05 ml normal saline on days 25, 26, and 27. Lung tissue was obtained 24 hours after the last i.n. challenge on day 28. The control group received normal saline with alum i.p. on days 0 and 14 and normal saline without alum i.n. on days 14, 25, 26, and 27. To assess the effect of HK-X inhibition on OVA induced asthma, HK-X (10 ug/ml) was given i.n. 30 minutes before each i.n challenge on days 25, 26, and 27.
After tying off the left lung at the mainstem bronchus, the right lung was […] three times with 0.4 ml of normal saline, Bronchoalveolar lavage (BAL) fluid cells from a 0.05 ml aliquot of the pooled sample were counted using a hemocytometer and the remaining fluid centrifuged at 4° C. for 10 minutes at 200 g. After resuspension of the cell pellet in normal saline containing 10% BSA, BAL cell smears were made on glass slides. To stain eosinophils, dried slides were stained with Discombe's diluting fluid (0.05% aqueous eosin and 5% (v/v) acetone in distilled water) for 5-8 minutes, rinsed with water for 0.5 minutes and counterstained with 0.07 methylene blue for 2 minutes.
Following BAL, the trachea and left lung (upper and lower lobes) were obtained and fixed in 10% buffered formalin solution at 20° C. for1S hours. After the tissues were processed and embeded in paraffin, the tissues were cut into 5 μm sections and stained with Discombe's solution and counterstained with methylene blue as described above or stained with Hematoxylin and eosin. The eosinophil number per unit airway area (2200 μm^2) was determined by morphometry as previously described. Airway mucus was identified by a variety of staining methods, i.e., methylene blue, Hematoxylin and eosin, mucicarmine, toluidine blue, alcian blue, and alcian blue/periodic acid Schiff (PAS) reaction. Mucin was stained with mucicarmine solution; metanil yellow counterstain was employed. Mucin and sialic acid-rich non-sulfated mucosubstances were stained metachromatically with toluidine blue, pH 4.5. Acidic mucin and sulfated mucosubstances were stained with alcian blue, pH 2.5; nuclear fast red counterstain was used. Neutral and acidic mucosubstances were identified by alcian blue, pH 2.5 and PAS reaction. The degree of mucus plugging of the airways (0.5˜0.8 mm in diameter) also was assessed by morphometry. The percent occlusion of airway diameter by mucus was classified on a semiquantitative scale from 0 to +++++. The histologic and morphometric analyses protocol design were performed by individuals blinded to the protocol design.
Mucus glycoproteins in BAL fluid were assayed by slot blotting and PAS staining as described. Nitrocellulose membranes (0.2 um pore size; Schleicher & Schuell, Keene, N.H.) were wetted in distilled water and then in normal saline before placement in a Minifold II 72-well slot blot apparatus (Schleicher & Schuell). The BAL fluid samples (0.05 ml) and aliquots (0.05-0.75 ml) of a stock solution (2 ug/ml) of human respiratory mucin glycoprotein were blotted onto the nitrocellulose membranes by water suction vacuum, and mucus glycoproteins were visualized by PAS reaction. […]

f-Met-Leu-Phe-Phe (For-MLFF) [Example 9]
cellular infiltration during asthmatic attack (10 μg HK-X intranasally 30 minutes prior to challenge, FIG. 9): reduces the cellular infiltration
eosinophil influx into lung tissue and BAL fluid (HK-X 10 ug/ml i.n. 30 minutes before each i.n. challenge, day 28): markedly reduced eosinophil influx into the lung tissue and BAL fluid
airway mucus release / secretion (HK-X i.n. 30 minutes before each OVA challenge days 25, 26, 27, histopathology, listed as HK-X): prevented airway mucus release; also recorded: blocked the airway mucus release; also recorded: prevents the airway mucus secretion; also recorded: reduces the mucus secretion in airways
number of eosinophils in the BAL fluid (OVA-sensitized/challenged mice treated with HK-X, in ×10^5 cells): 0.57+0.11 ×10^5
mucus cell induction by OVA immunization and challenge (alcian blue histochemistry, FIG. 10): prevents the mucus cell induction by OVA immunization and challenge
reduction of eosinophil influx into the lung interstitium (morphometric analysis, p<0.006 compared to OVA without HK-X, FIG. 11): 90%
